# Source: US20070259962A1, “Use of N-Arylhydrazine Derivatives for Combating Pests in and on Animals” (priority 2003, published 2007)
# Experiments:
# Aedes aegypti [1] = experiment: contact activity via glass contact, yellowfever mosquito; details: rate 10 ppm
# Protocol: (§1) 1. Screening method to test contact activity against stable fly, yellowfever mosquito, house mosquito, malaria mosquito, cat flea, and brown dog tick via glass contact
# (§2) Glass vials (20 ml scintillation vials) were treated with 0.5 ml of a solution of active ingredient in acetone. Each vial was rolled uncapped for ca. 10 minutes to allow the a.i. to completely coat the vial and to allow for full drying of the acetone. Insects or ticks were placed into each vial.
# (§3) Each test was replicated at least 3 times.
# Aedes aegypti [2] = experiment: contact activity via water treatment, yellowfever mosquito larvae; details: yellowfever mosquito larvae (4th-instars), rate 10 ppm
# Protocol: (§4) 2. Screening method to test contact activity against yellowfever mosquito, southern house mosquito, and malaria mosquito larvae via water treatment
# (§5) Well plates were used as test arenas. The active ingredient was dissolved in acetone and diluted with water to obtain the concentrations needed. The final solutions containing appr. 1% acetone were placed into each well. Approximately 10 mosquito larvae (4th-instars) in 1 ml water were added to each well. Larvae were fed one drop of liver powder each day. The dishes were covered and maintained at 22° C. Mortality was recorded daily and dead larvae and live or dead pupae were removed daily. At the end of the test remaining live larvae were recorded and percent mortality was calculated.
# as §3
# Stomoxys calcitrans = experiment: contact activity via glass contact, stable fly; details: rate 10 ppm
# Protocol: as §1, §2, §3
# Ctenocephalides felis = experiment: contact activity via glass contact, cat flea; details: rate 100 ppm
# Protocol: as §1, §2, §3
# Culex quinquefasciatus [3] = experiment: contact activity via water treatment, southern house mosquito larvae; details: house mosquito larvae (4th-instars), rate 10 ppm
# Protocol: as §4, §5, §3
# Culex quinquefasciatus [4] = experiment: contact activity via glass contact, house mosquito; details: rate 0.5 ppm
# Protocol: as §1, §2, §3
# Anopheles albimanus [5] = experiment: contact activity via water treatment, malaria mosquito larvae; details: malaria mosquito larvae (4th-instars), rate 1.0 ppm
# Protocol: as §4, §5, §3
# Anopheles albimanus [6] = experiment: contact activity via glass contact, malaria mosquito; details: rate 1 ppm
# Protocol: as §1, §2, §3
SMILES,Days or Hours to achieve 100% mortality (Aedes aegypti [1]) [h],Days or Hours to achieve 100% mortality (Aedes aegypti [2]) [days],Days or Hours to achieve 100% mortality (Stomoxys calcitrans) [h],Days or Hours to achieve 100% mortality (Ctenocephalides felis) [days],Days or Hours to achieve 100% mortality (Culex quinquefasciatus [3]) [days],Days or Hours to achieve 100% mortality (Culex quinquefasciatus [4]) [h],Days or Hours to achieve 100% mortality (Anopheles albimanus [5]) [days],Days or Hours to achieve 100% mortality (Anopheles albimanus [6]) [days]
"CCN/C(=N\Nc1c(Cl)cc(C(F)(F)F)cc1Cl)C1(C)CC1(Cl)Cl (stereo not drawn) [1-2, N-Ethyl-2,2-dichloro-1-methylcyclopropane-carboxamide-2-(2,6-dichloro-α,α,α-trifluoro-p-tolyl)hydrazone]",4,2,4,2,1,4,1,1
"CCN/C(=N\Nc1c(Cl)cc(C(F)(F)F)cc1Cl)C(C)(C)C [I-1, N-ethyl-2,2-dimethylpropionamide-2-(2,6-dichloro-α,α,α-trifluoro-p-tolyl)-hydrazone]",4,2,4,2,1,4,1,1
